≈ marks a conversion by molar mass, not a printed value.
How the values were obtained:
[1] = Half life was determined; format: ADME; conditions: rat
[2] = test system: Plasmodium falciparum; assay: In vitro antimalarial activity against Plasmodium falciparum; format: functional, organism-based

Row | SMILES | half-life [1] [h] | IC50 [2] [ng/mL]
1 | CCCC[C@H]1O[C@@H]2O[C@]3(C)CC[C@H]4[C@H](C)CC[C@@H]([C@H]1C)[C@@]24OO3 | 165 | 1.15 (≈ 3.54 nM)
2 | C[C@H]1[C@@H](CCCCC(=O)O)O[C@@H]2O[C@]3(C)CCC4[C@H](C)CC[C@@H]1[C@]42OO3 (stereo partly specified) | 374 | 1.28 (≈ 3.47 nM)
3 | C[C@H]1[C@@H](CCCC(=O)O)O[C@@H]2O[C@]3(C)CCC4[C@H](C)CC[C@@H]1[C@]42OO3 (stereo partly specified) | 387 | 1.3 (≈ 3.67 nM)
4 | C[C@@H]1CC[C@H]2[C@@H](C)CO[C@@H]3O[C@]4(C)CCC1[C@]32OO4 (stereo partly specified) | 213 | 0.15 (≈ 0.559 nM)
5 | C[C@H]1[C@@H](Cc2ccccc2)O[C@@H]2O[C@]3(C)CCC4[C@H](C)CC[C@@H]1[C@]42OO3 (stereo partly specified) | 286 | < 0.17
6 | CCO[C@H]1O[C@@H]2OC3(C)CCC4[C@H](C)CC[C@@H]([C@H]1C)[C@]42OO3 (single isomer, unassigned) | 11 | 0.16 (≈ 0.512 nM)
7 | C[C@H]1[C@@H](OCc2ccc(C(=O)O)cc2)O[C@@H]2OC3(C)CCC4[C@H](C)CC[C@@H]1[C@]42OO3 (single isomer, unassigned) | 13.1 | 1.38 (≈ 3.3 nM)
8 | C[C@@H]1CC[C@H]2[C@@H](C)C(=O)O[C@@H]3O[C@@]4(C)CC[C@@H]1[C@]32OO4 [ARTEMISININ] | 23.5 | –
9 | C[C@H]1[C@@H](O)O[C@@H]2O[C@@]3(C)CC[C@H]4[C@H](C)CC[C@@H]1[C@@]24OO3 [ARTENIMOL] | 17.2 | –
